Experimental findings from publication PMC3740496, “Synthesis and biological activities of the respiratory chain inhibitor aurachin D and new ring versus chain analogues” (Beilstein Journal of Organic Chemistry, 2013) are described below.

Common to all, as to format: cell-based
For experiment [1], the system named is Plasmodium falciparum FcB1 (chloroquine-resistant). Kind of experiment: In vitro antiplasmodial assay ([3H]-hypoxanthine incorporation). The following applies: for IC50: Plasmodium falciparum, FCB1, triplicate (except compound 24), mean ±SD, read-out: IC50 P. falciparum FcB1; for antiplasmodial selectivity index: Vero cytotoxic concentration / concentration active on P. falciparum FcB1. The method, then: In vitro antiplasmodial assays: The chloroquine-resistant strain FcB1/Colombia of Plasmodium falciparum was maintained in vitro on human erythrocytes in RPMI 1640 medium supplemented by 8% (v/v) heat-inactivated human serum, at 37 °C, under an atmosphere of 3% CO2, 6% O2, and 91% N2. In vitro drug susceptibility assays was measured by [3H]-hypoxanthine incorporation as described. Drugs were prepared in DMSO at a 10 mg/mL concentration. Compounds were serially diluted two-fold with 100 µL culture medium in 96-well plates. Asynchronous parasite cultures (100 µL, 1% parasitaemia and 1% final hematocrite) were then added to each well and incubated for 24 h at 37 °C prior to the addition of 0.5 µCi of [3H]- hypoxanthine (GE Healthcare, France, 1 to 5 Ci·mmol/mL) per well. After a further incubation of 24 h, plates were frozen and thawed. Cell lysates were then collected onto glass-fiber filters and counted in a liquid scintillation spectrometer. The growth inhibition for each drug concentration was determined by comparison of the radioactivity incorporated in the treated culture with that in the control culture maintained on the same plate. The concentration causing 50% growth inhibition (IC50) was obtained from the drug concentration–response curve and the results were expressed as the mean values ± standard deviations determined from several […]
independent experiments. Chloroquine diphosphate (Sigma–Aldrich) was used as antimalarial drug control. […]

The subject of experiment [2] is K562 myelogenous leukemia cells. Kind of experiment: Cytotoxicity, growth inhibition (MTT). The following applies: Homo sapiens, K562, 120 h; 5 days treatment; triplicate, mean ±SD; read-out: IC50: half inhibitory concentration, K562. The method, then: (§1) The cytotoxic activity of aurachin D (4) and analogues 9–11 and 17–19 was evaluated in growth inhibition experiments on mammalian cell lines (Table 2). After 5 days treatment, half inhibitory concentrations (IC50) were determined for human HCT-116 colon carcinoma and human K562 myelogenous leukemia cells. […]
(§2) was further incubated for 1.5 h. The medium was then discarded and 100 µL 2-propanol/10 N HCl (250:1) was added in order to dissolve formazan granules. The absorbance at 570 nm was measured using a microplate reader (EL808, Bio-Tek Instruments Inc.) and cell viability was expressed as a percentage relative to the respective solvent control. […]

For experiment [3], the system named is HCT-116 human colon carcinoma cells. Description: Cytotoxicity, growth inhibition (MTT). The following applies: Homo sapiens, HCT-116, 120 h, read-out: IC50: half inhibitory concentration, HCT-116. The method, then:
as §1, §2

The test system of experiment [4] is Trypanosoma brucei gambiense strain Feo bloodstream forms. Kind of experiment: Antitrypanosomal assay (resazurin). The note with it: for IC50: Trypanosoma brucei, GAMBIENSE, 72 h incubation, read-out: IC50 T. brucei gambiense. The method, then: page 10: independent experiments. Chloroquine diphosphate (Sigma–Aldrich) was used as antimalarial drug control. Antitrypanosomal activities: Bloodstream forms of Trypanosoma brucei gambiense strain Feo were cultured in HMI9 medium supplemented with 10% FCS at 37 °C under an atmosphere of 5% CO2. Antitrypanosomal assays were performed as previously described. In all experiments, log-phage cell cultures were harvested by centrifugation at 3,000g and immediately used. Drug assays were based on the conversion of a redox-sensitive dye (resazurin) to a fluorescent product by viable cells. Drug stock solutions were prepared in pure DMSO. […] After a 72 h incubation, resazurin solution was added in each well at the final concentration of 45 µM. Fluorescence was measured at 530 nm excitation and 590 nm emission wavelengths after a further 4 h incubation. Each inhibitor concentration was tested in triplicate. The percentage of inhibition of parasite growth rate was calculated by comparing the fluorescence of parasites maintained in the presence of drug to that in the absence of drug. DMSO was used as a control. IC50s were determined from the dose–response curves with drug concentrations ranging from 100 µM to 50 nM. Pentamidine was used as antitrypanosomal drug control. MIC determination: Indicator strains were obtained from the German Collection of Microorganisms and Cell Cultures (Deutsche Sammlung für Mikroorganismen und Zellkulturen, DSMZ) or were part of our internal strain collection. All microorganisms were handled under standard conditions recommended by the depositor. Overnight S10

The subject of another experiment is Micrococcus luteus. Description: MIC determination. The note with it: duplicate, mean ±SD. The method, then: (§3) MIC determination: Indicator strains were obtained from the German Collection of Microorganisms and Cell Cultures (Deutsche Sammlung für Mikroorganismen und Zellkulturen, DSMZ) or were part of our internal strain collection. All microorganisms were handled under standard conditions recommended by the depositor. Overnight […]
(§4) cultures of bacteria were prepared in EBS medium (0.5% casein peptone, 0.5% proteose peptone, 0.1% meat peptone, 0.1% yeast extract; pH 7.0). Yeasts and molds were grown in Myc medium (1% phytone peptone, 1% glucose, 50 mM
(§5) HEPES, pH 7.0). The overnight cultures of microorganisms were diluted to OD600 0.01 (bacteria) or 0.05 (yeasts/molds) in the respective growth medium. Serial dilutions of compounds were prepared as duplicates in sterile 96-well plates. The cell suspension was added and microorganisms were grown overnight on a microplate shaker (900 rpm, 30 °C or 37 °C). Growth inhibition was assessed by measuring the OD600 on a plate reader (POLARstar, BMG Labtech). MIC50 values were determined as averages relative to respective control samples by sigmoidal curve fitting. […]

In experiment [5] the test system is Klebsiella pneumoniae DSM30104. Description: MIC determination. The following applies: duplicate, mean ±SD. On the procedure: as §3, §4, §5
Experiment [6] deals with Escherichia coli DH5α (wt). Kind of experiment: MIC determination. The following applies: duplicate, mean ±SD. The method, then: as §3, §4, §5
Experiment [7] concerns Staphylococcus aureus Newman (MSSA). Kind of experiment: MIC determination. The following applies: duplicate, mean ±SD. On the procedure:
as §3, §4, §5

Experiment [8] has as its system Staphylococcus aureus DSM11822 (MRSA). Kind of experiment: MIC determination. The following applies: duplicate, mean ±SD. The method, then:
as §3, §4, §5

The subject of the next experiment is Escherichia coli (TolC). Kind of experiment: MIC determination. The note with it: read-out: MIC50 Escherichia coli (TolC). The method, then: as §3, §4, §5
A further experiment concerns Bacillus subtilis DSM10. Kind of experiment: MIC determination. The following applies: duplicate, mean ±SD; for MIC50: Bacillus subtilis, DSM10. On the procedure:
as §3, §4, §5

≈ marks a conversion by molar mass, not a printed value. A value given as a limit tells only on which side of the number the result lay.

For orientation: MIC50 means the lowest concentration that inhibits either 50% of growth or 50% of the strains tested, depending on the study.

On to `COc1ccc2[nH]c(C)c(CC=C(C)CCC=C(C)CCC=C(C)C)c(=O)c2c1` [compound 18], for which the IC50 was 0.2 ± 0.04 µg/mL (≈ 0.508 µM) in experiment [1], 1.15 ± 0.22 µg/mL (≈ 2.92 µM) in experiment [2], 1.64 ± 0.47 µg/mL (≈ 4.17 µM) in experiment [3] and 1.6 µg/mL (≈ 4.07 µM) in [4]. For the same molecule, the MIC50 was 49.2 ± 3.94 µg/mL (≈ 125 µM) in the experiment with Micrococcus luteus; above 64 µg/mL in [5]; above 64 µg/mL in experiment [6]; above 64 µg/mL in experiment [7]; above 64 µg/mL in experiment [8]; above 64 µg/mL in the experiment on Escherichia coli (TolC). Besides, in the experiment with Bacillus subtilis DSM10, the MIC50 was determined as 6.75 ± 0.6 µg/mL (≈ 17.2 µM). Also, the “MIC50 Bacillus subtilis DSM10” value against Bacillus subtilis DSM10 is on record as “significant growth inhibitory effect”.

Turning to `CC(C)=CCCC(C)=CCCC(C)=CCc1c(C)[nH]c2ccc3ccccc3c2c1=O` [compound 17], the IC50 in [1] was 0.51 ± 0.18 µg/mL (≈ 1.23 µM); in experiment [2], around 10 µg/mL (≈ 24.2 µM); in [3], above 10 µg/mL; in experiment [4], 0.8 µg/mL (≈ 1.93 µM). The MIC50 (against Micrococcus luteus; in experiment [5]; in experiment [6]; in [7]; in experiment [8]; with Escherichia coli (TolC)) was above 64 µg/mL each time. This molecule also displayed an MIC50 with Bacillus subtilis DSM10 above 64 µg/mL.

In the case of `CC(C)=CCC/C(C)=C/Cc1c(C)[nH]c2ccccc2c1=O` [compound 9], the IC50 was determined as 0.07 ± 0.02 µg/mL (≈ 0.237 µM) in experiment [1], 1.5 ± 0.31 µg/mL (≈ 5.08 µM) in experiment [2], 2.52 ± 0.48 µg/mL (≈ 8.53 µM) in experiment [3] and 1.5 µg/mL (≈ 5.08 µM) in experiment [4]. For the same molecule, in [1], the antiplasmodial selectivity index is given as 345. Moreover, the MIC50 in the experiment with Micrococcus luteus is 2.59 ± 0.34 µg/mL (≈ 8.77 µM); in experiment [5] it was above 64 µg/mL; in [6], above 64 µg/mL; in experiment [7], 3.96 ± 0.49 µg/mL (≈ 13.4 µM); in experiment [8], 4.5 ± 0.74 µg/mL (≈ 15.2 µM); in the experiment with Escherichia coli (TolC) it was 1.41 ± 0.45 µg/mL (≈ 4.77 µM). In the experiment on Bacillus subtilis DSM10, this molecule yielded an MIC50 below 0.1 µg/mL.

On to `CC(C)=CCC/C(C)=C/CC/C(C)=C/Cc1c(C)[nH]c2ccccc2c1=O` [compound 4, aurachin D], for which the IC50 in experiment [1] was found to be 0.04 ± 0.02 µg/mL (≈ 0.11 µM); in experiment [2], 0.65 ± 0.16 µg/mL (≈ 1.79 µM); in [3] it was 2.23 ± 0.76 µg/mL (≈ 6.13 µM); in [4] it was 0.4 µg/mL (≈ 1.1 µM). This molecule also registered an antiplasmodial selectivity index in experiment [1] of 345. This molecule also displayed an antitrypanosomal selectivity index in experiment [4] (Vero cytotoxic concentration / concentration active on T. brucei gambiense) of 35. In addition, the MIC50 was 1.47 ± 0.12 µg/mL (≈ 4.04 µM) against Micrococcus luteus; above 64 µg/mL in experiment [5]; above 64 µg/mL in experiment [6]; 5.46 ± 1.05 µg/mL (≈ 15 µM) in experiment [7]; 2.1 ± 0.19 µg/mL (≈ 5.78 µM) in experiment [8]; 8.36 ± 1 µg/mL (≈ 23 µM) with Escherichia coli (TolC). For the same molecule, the MIC50 against Bacillus subtilis DSM10 was below 0.1 µg/mL.

As to `CC(C)=CCCC(C)=CCCC(C)=CCc1c(C)[nH]c2cc3c(cc2c1=O)OCO3` [compound 19], the IC50 was 0.42 ± 0.09 µg/mL (≈ 1.03 µM) in experiment [1], above 10 µg/mL in experiment [2], above 10 µg/mL in experiment [3] and above 10 µg/mL in [4]. Further, the MIC50 with Micrococcus luteus was above 64 µg/mL; in [5] it was above 64 µg/mL; in experiment [6] it was above 64 µg/mL; in experiment [7], 34.6 ± 5.13 µg/mL (≈ 84.8 µM); in experiment [8], above 64 µg/mL; with Escherichia coli (TolC), above 64 µg/mL. The same molecule came in with an MIC50 against Bacillus subtilis DSM10 of 4.66 ± 0.5 µg/mL (≈ 11.4 µM). Besides, in the experiment on Bacillus subtilis DSM10, the “MIC50 Bacillus subtilis DSM10” value was “significant growth inhibitory effect”.
